Data taken from PMC9760738, “Pharmacokinetics, absorption, distribution, metabolism and excretion of the MEK inhibitor zapnometinib in rats” (Frontiers in Pharmacology, 2022).
Like-named read-outs stand apart in the source and are kept apart here.

Tests used:
[1] = set-up: method as in Wabnitz et al., 2004; details: monkey; ref Wabnitz et al., 2004; cited from earlier work
[2] = system: MEK; set-up: method as in Lorusso et al., 2005; details: ref Lorusso et al., 2005; read-out: 50% inhibitory concentration (IC50); cited from earlier work
[3] = set-up: method as in Wabnitz et al., 2004; details: rat; ref Wabnitz et al., 2004; cited from earlier work
[4] = Metabolite profiling of pooled feces extracts by radio-HPLC (Group 2); format: in vivo, rat
Description: (§1) Metabolite profiling was performed by HPLC analysis according to the company’s SOP of plasma (Group 3), urine (Group 2) and feces (Group 2) samples. Briefly, for metabolite profiling and identification, radioactivity (cpm) was measured in HPLC eluent fractions that had previously been collected at 12 s intervals for the duration of the run (65 min) into 96-well Deep Well LumaPlates and dried in a centrifugal evaporator. A Microbeta2 scintillation counter was used to count each plate, with wells simultaneously counted for 2 min, after an initial 5 min delay. A subsample of plasma was analyzed (ca 2 ml) taken from individual animals to provide representative samples, for each sex, at 2, 8 and 168 h post dose (n = 6). Equal proportions of the total urine weight voided from Group 2 animals was pooled to provide representative samples for each sex at 0–6 h, 6–24 h and 24–48 h post dose (n = 6). Equal proportions of the total feces homogenate generated from the samples voided by the three rats (Group 2) were pooled to provide representative samples for each sex at 0–24 and 24–48 h post dose ([…]). Sample preparation was carried out due to the company’s SOPs (see Supplementary Methods). The extractability was ≥95.0% (95.0–100%) TRR (Total Radioactive Residue) for plasma and ≥88.3% (88.3%–91.3%) TRR for feces. As reference, a standard solution of zapnometinib (0.1 mg/ml in acetonitrile) was used. To assess HPLC method suitability, a column recovery was assessed on each representative sample (one per matrix). The recovery of radioactivity from the HPLC column was determined by collecting the column eluent, following an injection of a representative sample (one per matrix), and determining the radioactive content by submitting aliquots for LSC analysis. The results of these analyses were between 93.8%–105.1% column recoveries.
Next, radioactive metabolic components of zapnometinib in urine, plasma and feces extracts were isolated and profiled. The components were quantified by fraction collection/scintillation analysis, as appropriate to the radioactivity concentrations. Mass spectroscopy was used to propose identities of the major circulatory and excreted metabolites, and to correlate the metabolites detected in the different matrices. Components identified by LC-MS/MS were related to the quantified HPLC analysis by comparison of related radiochromatograms and comparison of elution order. Representative HPLC radiochromatograms of pooled feces extracts collected during 0–24 and 24–48 h post dose from male and female rats (which reveal the main metabolites) were qualitatively similar with some minor sex differences (Figure 3). […]
times with the following solvents following the same procedure: Extract 2 – Acetonitrile/methanol 4:1 (v/v); Extract 3 – Acetonitrile/Water 1:1 (v/v). Duplicate weighed aliquots of each supernatant (ca 0.1 mL) were mixed directly with Ultima Gold scintillation cocktail for measurement of radioactivity concentrations. The extracted residue was allowed to air dry and the total weight was recorded. Duplicate weighed portions (ca 0.05g) were taken for radioassay after oxidation. The extracts were combined and concentrated under a constant stream of nitrogen gas to near dryness and reconstituted in acetonitrile/0.1% aqueous formic acid, 1:1 (v/v) by vortex mixing, sonication and centrifugation at 10000 × g for 5 min at 4°C.
The concentrates were weighed, and duplicate weighed aliquots (0.025 – 0.05 mL) taken for measurement of radioactivity to calculate recovery following concentration. An aliquot of each concentrated extract was injected into the HPLC. […]
(100 mL) in purified water (600 mL) and methanol (300 mL). After measurement of total sample weight (as appropriate), replicate portions of diluted dose solutions (ca 0.1 mL), plasma (ca 0.05 – 0.25 mL), urine (ca 0.05 – 0.25 mL), expired air trap solution (ca 1 mL) and cage wash (ca 1 mL) were mixed directly with Ultima Gold scintillation cocktail (5 mL; 15 mL for […]

[5] = Metabolite profiling of plasma extracts by radio-HPLC (Group 3); format: in vivo, rat; details: male plasma
Description: as §1
Next, radioactive metabolic components of zapnometinib in urine, plasma and feces extracts were isolated and profiled. The components were quantified by fraction collection/scintillation analysis, as appropriate to the radioactivity concentrations. Mass spectroscopy was used to propose identities of the major circulatory and excreted metabolites, and to correlate the metabolites detected in the different matrices. Components identified by LC-MS/MS were related to the quantified HPLC analysis by comparison of related radiochromatograms and comparison of elution order. Representative HPLC radiochromatograms of pooled feces extracts collected during 0–24 and 24–48 h post dose from male and female rats (which reveal the main metabolites) were qualitatively similar with some minor sex differences (Figure 3).

## O=C(NOCC1CC1)c1ccc(F)c(F)c1Nc1ccc(I)cc1Cl [CI-1040, 2-(2-chloro-4-iodo-phenylamino)-Ncyclopropylmethoxy-3,4-difluoro-benzamide]
[1]
  Renal elimination: < 5 % of dose
[2]
  IC50: […]
[3]
  Renal elimination: < 5 % of dose

## CC(C)[C@H](NC(=O)c1ccc(F)c(F)c1Nc1ccc(I)cc1Cl)C(=O)O [M3]
[4]; 0-24 hours, female rats
  Amount in pooled feces extracts: 16.10 % Dose
[4]; 0-24 hours, male rats
  Amount in pooled feces extracts: 4.21 % Dose
[4]; 24-48 hours, female rats
  Amount in pooled feces extracts: 2.48 % Dose
[4]; Total (0-48 hours), female rats
  Amount in pooled feces extracts: 18.58 % Dose
[4]; Total (0-48 hours), male rats
  Amount in pooled feces extracts: 4.21 % Dose
[5]
  Amount detected in plasma by mass spectrometry: trace amounts
